The assay deals with T1, Integrin-linked kinase (ILK) (Homo sapiens, UniProt Q13418).
T1 sequence (Q13418 1-452): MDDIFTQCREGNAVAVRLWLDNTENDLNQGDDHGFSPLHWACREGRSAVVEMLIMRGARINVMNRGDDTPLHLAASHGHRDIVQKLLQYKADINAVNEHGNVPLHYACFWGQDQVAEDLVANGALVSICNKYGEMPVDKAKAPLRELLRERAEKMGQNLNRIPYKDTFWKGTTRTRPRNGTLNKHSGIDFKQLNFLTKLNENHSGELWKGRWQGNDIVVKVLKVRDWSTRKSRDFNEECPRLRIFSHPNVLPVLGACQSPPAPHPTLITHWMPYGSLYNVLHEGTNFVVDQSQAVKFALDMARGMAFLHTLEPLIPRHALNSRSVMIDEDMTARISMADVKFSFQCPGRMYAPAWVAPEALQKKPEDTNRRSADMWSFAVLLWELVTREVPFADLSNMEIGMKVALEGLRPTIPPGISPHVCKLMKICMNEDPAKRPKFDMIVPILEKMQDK
The experiment in a line: SPR (Biacore X-100, ILK immobilized on CM5 chip by amine coupling, Cpd22 […]). In kind it is binding. A general note: SPR reads the build-up and loss of mass on a sensor chip optically.

Take `CNC(=O)CCc1cc(-c2ccc(-c3ccc(C(F)(F)F)cc3)cc2)n(-c2ccc(N3CCNCC3)cc2)n1` [Cpd22]: the Kd (as a rule, the equilibrium constant for the complex coming apart) is roughly 592 µM.

The values above are taken from article PMC9512720, “Insight into the mechanism of molecular recognition between human Integrin-Linked Kinase and Cpd22 and its implication at atomic level” (Journal of Computer-Aided Molecular Design, 2022).
